pIC50: −log10 of the molar value.
Experiments:
[1] = test system: PDE8; assay: PDE8 enzymatic assay equivalent to that described for PDE7; assay type: biochemical
[2] = test system: MG7 microglial cells; assay: In vitro model of microglial activation: interleukin-1β secretion by LPS-activated MG7 cells (ELISA); assay type: cell-based, mouse
Protocol: The compounds according to the invention have been evaluated in an in vitro model of microglial activation. After activation by lipopolysaccharide (LPS), the microglial cells secrete large amounts of interleukin-1, which amounts can be quantified by specific assaying in the cell supernatants.
Cultures of microglial cells of the MG7 line derived from the mouse cortex are incubated in the presence of variable concentrations of compounds according to the invention. After incubating at 37° C. for 1 hour, the cells are brought together with LPS, which induces the production of interleukin-1. After treating for 24 h, the amounts of interleukin-1β are measured in the culture supernatants by ELISA assay.

SMILES	pIC50 [1]	inhibition at 3 µM ([2]; Mus musculus, at 3 μM, MG7 microglial cells activated by LPS, 24 h, read-out: maximum inhibitory effect on secretion of interleukin-1β)	secretion of interleukin-1β by MG7 microglial cells activated by LPS ([2]; variable concentrations, 1 h preincubation, LPS 24 h)
COc1ccc(Cn2c(=O)c3cc(OC(CF)CF)ccc3n(C3CCN(C=O)CC3)c2=O)cc1OC [No. 11, 4-[3-(3,4-dimethoxybenzyl)-6-[2-fluoro-1-(fluoromethyl)ethoxy]-2,4-dioxo-3,4-dihydroquinazolin-1(2H)-yl]piperidine-1-carbaldehyde]	6.85	–	–
N#Cc1cc(Cn2c(=O)c3cc(OC(CF)CF)ccc3n(C3CCN(C=O)CC3)c2=O)ccc1-c1ccccc1 [No. 294, 4-({6-[2-fluoro-1-(fluoromethyl)ethoxy]-1-(1-formylpiperidin-4-yl)-2,4-dioxo-1,4-dihydroquinazolin-3(2H)-yl}methyl)biphenyl-2-carbonitrile]	7.82	–	–
O=CN1CCC(n2c(=O)n(Cc3ccc(-c4cccs4)cc3)c(=O)c3cc(OC(CF)CF)c(F)cc32)CC1 [No. 297, 4-{7-fluoro-6-[2-fluoro-1-(fluoromethyl)ethoxy]-2,4-dioxo-3-(4-(thiophen-2-yl)benzyl)-3,4-dihydroquinazolin-1(2H)-yl}piperidine-1-carbaldehyde]	–	47%	significantly decreases, in a concentration-dependent fashion

— US8748441B2, “Therapeutic uses of quinazolinedione derivatives” (SANOFI, priority 2009, dated 2014)
